Test results from the supplement of paper PMC10307832.

Columns and labels:
Assay in all cases: relative viability (nuclei count vs DMSO), 5 days (fraction); higher = more cells survive
Alpelisib + AZD7762 = compound: Cc1nc(NC(=O)N2CCC[C@H]2C(N)=O)sc1-c1ccnc(C(C)(C)C(F)(F)F)c1 [Alpelisib] + NC(=O)Nc1cc(-c2cccc(F)c2)sc1C(=O)N[C@H]1CCCNC1 [AZD7762] (partner 0.2 µM)
In short: (§1)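 Lung cancer cell lines in 1536-well plates were dosed by pin tool the day after seeding, either with one drug alone or with a fixed anchor-drug dose plus five library-drug doses (not always all listed) in √10 steps. After 5 days, cells were fixed and their nuclei stained in one step (final 0.05% Triton X-100, 1% formaldehyde, 1 ug/ml Hoechst), then counted on 4× images. Relative viability is the nuclei count in treated wells divided by that in vehicle wells. Values are medians of duplicate plates.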

Vemurafenib + Trametinib = compound: CCCS(=O)(=O)Nc1ccc(F)c(C(=O)c2c[nH]c3ncc(-c4ccc(Cl)cc4)cc23)c1F [Vemurafenib] + CC(=O)Nc1cccc(-n2c(=O)n(C3CC3)c(=O)c3c(Nc4ccc(I)cc4F)n(C)c(=O)c(C)c32)c1 [Trametinib] (partner 0.02 µM)
In short: as §1

Vemurafenib + Vorinostat = compound: CCCS(=O)(=O)Nc1ccc(F)c(C(=O)c2c[nH]c3ncc(-c4ccc(Cl)cc4)cc23)c1F [Vemurafenib] + O=C(CCCCCCC(=O)Nc1ccccc1)NO [Vorinostat] (partner 1 µM)
In short: as §1

OSI-027 + Tozasertib = compound: COc1cccc2cc(-c3nc([C@H]4CC[C@H](C(=O)O)CC4)n4ncnc(N)c34)[nH]c12 [OSI-027] + Cc1cc(Nc2cc(N3CCN(C)CC3)nc(Sc3ccc(NC(=O)C4CC4)cc3)n2)n[nH]1 [Tozasertib] (partner 0.1 µM)
In short: as §1

Row | Cell Line | relative viability (Alpelisib + AZD7762; first compound 0.04 µM) | relative viability (Alpelisib + AZD7762; first compound 0.1265 µM) | relative viability (Alpelisib + AZD7762; first compound 0.4 µM) | relative viability (Alpelisib + AZD7762; first compound 1.265 µM) | relative viability (Alpelisib + AZD7762; first compound 4 µM) | relative viability (Vemurafenib + Trametinib; first compound 0.03162 µM) | relative viability (Vemurafenib + Trametinib; first compound 0.1 µM) | relative viability (Vemurafenib + Trametinib; first compound 0.3162 µM) | relative viability (Vemurafenib + Trametinib; first compound 1 µM) | relative viability (Vemurafenib + Vorinostat; first compound 0.03162 µM) | relative viability (Vemurafenib + Vorinostat; first compound 0.1 µM) | relative viability (Vemurafenib + Vorinostat; first compound 0.3162 µM) | relative viability (Vemurafenib + Vorinostat; first compound 1 µM) | relative viability (OSI-027 + Tozasertib; first compound 0.01 µM) | relative viability (OSI-027 + Tozasertib; first compound 0.03162 µM) | relative viability (OSI-027 + Tozasertib; first compound 0.1 µM) | relative viability (OSI-027 + Tozasertib; first compound 0.3162 µM) | relative viability (OSI-027 + Tozasertib; first compound 1 µM)
1 | NCI-H358 | 0.506 | 0.386 | 0.497 | 0.301 | 0.295 | 0.155 | 0.119 | 0.15 | 0.175 | 0.671 | 0.587 | 0.768 | 0.65 | 0.105 | 0.0898 | 0.0968 | 0.0931 | 0.0733
2 | NCI-H520 |  |  |  |  |  | 0.688 | 0.599 | 0.706 | 0.662 | 0.68 | 0.714 | 0.718 | 0.497 | 0.429 | 0.385 | 0.396 | 0.339 | 0.193
3 | NCI-H661 |  |  |  |  |  | 0.522 | 0.475 | 0.517 | 0.606 | 0.73 | 0.72 | 0.803 | 0.749 | 0.357 | 0.374 | 0.362 | 0.344 | 0.351
4 | NCI-H1623 |  |  |  |  |  |  |  |  |  |  |  |  |  | 0.391 | 0.414 | 0.417 | 0.414 | 0.233
5 | NCI-H1650 |  |  |  |  |  | 0.595 | 0.406 | 0.633 | 0.577 | 0.466 | 0.477 | 0.682 | 0.485 | 0.454 | 0.347 | 0.36 | 0.424 | 0.355
6 | NCI-H1703 | 0.0965 | 0.129 | 0.125 | 0.103 | 0.116 |  |  |  |  |  |  |  |  |  |  |  |  | 
7 | NCI-H1792 | 0.59 | 0.534 | 0.783 | 0.465 | 0.36 | 0.495 | 0.482 |  | 0.548 |  |  |  |  |  |  |  |  | 
8 | NCI-H2009 |  |  |  |  |  | 0.269 | 0.272 | 0.21 | 0.372 | 0.813 | 0.731 | 0.715 | 0.665 | 0.759 | 0.621 | 0.717 | 0.755 | 0.444
9 | NCI-H2023 |  |  |  |  |  | 0.592 | 0.489 | 0.597 | 0.699 | 0.531 | 0.662 | 0.57 | 0.584 | 0.424 | 0.319 | 0.352 | 0.348 | 0.244
10 | NCI-H2228 |  |  |  |  |  | 0.357 | 0.524 | 0.668 | 0.439 | 0.457 | 0.536 | 0.589 | 0.595 | 0.246 | 0.242 | 0.242 | 0.207 | 0.16
11 | SK-LU-1 |  |  |  |  |  | 0.468 | 0.515 | 0.459 | 0.432 | 0.699 | 0.687 | 0.535 | 0.835 | 0.295 | 0.331 | 0.303 | 0.248 | 0.241
12 | SK-MES-1 |  |  |  |  |  | 0.569 |  | 0.589 | 0.763 | 1.06 |  | 0.949 | 1.01 | 0.923 | 0.842 | 0.807 | 0.744 | 0.402
13 | SW 1573 |  |  |  |  |  | 0.556 | 0.612 | 0.679 | 0.49 | 0.655 | 0.767 | 0.473 | 0.537 | 0.186 | 0.197 | 0.206 | 0.142 | 0.178
